Data from the supplement of paper PMC10307832.

How the values were obtained:
Test in all cases: relative viability (nuclei count vs DMSO), 5 days (fraction); higher = more cells survive
[1] = system: 201T
Procedure, shortened: (§1)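 After 5 days of treatment, lung cancer cells in 1536-well plates were fixed and stained in a single step (final 0.05% Triton X-100, 1% formaldehyde, 1 ug/ml Hoechst) and their nuclei counted on 4× images. Treatment had been applied by pin tool the day after seeding as one drug alone or as a fixed anchor-drug dose with five library-drug doses (not always all listed) in √10 steps. Relative viability is the nuclei count of treated wells divided by that of vehicle wells, and values are medians of duplicate plates.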

[2] = system: NCI-H358
Procedure, shortened: as §1

[3] = system: BEN
Procedure, shortened: as §1

[4] = system: NCI-H2087
Procedure, shortened: as §1

[5] = system: NCI-H2126
Procedure, shortened: as §1

[6] = system: EKVX
Procedure, shortened: as §1

[7] = system: NCI-H441
Procedure, shortened: as §1

[8] = system: EMC-BAC-2
Procedure, shortened: as §1

[9] = system: COR-L23
Procedure, shortened: as §1

[10] = system: NCI-H1650
Procedure, shortened: as §1

[11] = system: EPLC-272H
Procedure, shortened: as §1

[12] = system: NCI-H1915
Procedure, shortened: as §1

[13] = system: LCLC-103H
Procedure, shortened: as §1

[14] = system: NCI-H1651
Procedure, shortened: as §1

[15] = system: NCI-H2347
Procedure, shortened: as §1

[16] = system: NCI-H596
Procedure, shortened: as §1

[17] = system: HCC-44
Procedure, shortened: as §1

[18] = system: SW 1573
Procedure, shortened: as §1

[19] = system: LK-2
Procedure, shortened: as §1

[20] = system: NCI-H1793
Procedure, shortened: as §1

[21] = system: HCC-827
Procedure, shortened: as §1

[22] = system: LXF-289
Procedure, shortened: as §1

[23] = system: A-427
Procedure, shortened: as §1

[24] = system: NCI-H460
Procedure, shortened: as §1

[25] = system: SW 900
Procedure, shortened: as §1

## CCCCCCCCCCCC1=C(O)C(=O)C=C(O)C1=O [Embelin] + Cc1cc(Nc2cc(N3CCN(C)CC3)nc(Sc3ccc(NC(=O)C4CC4)cc3)n2)n[nH]1 [Tozasertib] (partner 0.1 µM)
[1]; first compound 0.08 µM
  relative viability: 0.934
[1]; first compound 0.8 µM
  relative viability: 0.963
[1]; first compound 2.53 µM
  relative viability: 0.94
[1]; first compound 8 µM
  relative viability: 1.06
[2]; first compound 0.08 µM
  relative viability: 0.116
[2]; first compound 0.8 µM
  relative viability: 0.0994
[2]; first compound 2.53 µM
  relative viability: 0.108
[2]; first compound 8 µM
  relative viability: 0.106
[3]; first compound 0.08 µM
  relative viability: 0.518
[3]; first compound 0.8 µM
  relative viability: 0.591
[3]; first compound 2.53 µM
  relative viability: 0.542
[3]; first compound 8 µM
  relative viability: 0.512
[4]; first compound 0.08 µM
  relative viability: 0.28
[4]; first compound 0.8 µM
  relative viability: 0.308
[4]; first compound 2.53 µM
  relative viability: 0.222
[4]; first compound 8 µM
  relative viability: 0.217
[5]; first compound 0.08 µM
  relative viability: 0.809
[5]; first compound 0.8 µM
  relative viability: 0.907
[5]; first compound 2.53 µM
  relative viability: 0.919
[5]; first compound 8 µM
  relative viability: 0.878
[6]; first compound 0.08 µM
  relative viability: 0.387
[6]; first compound 0.8 µM
  relative viability: 0.381
[6]; first compound 2.53 µM
  relative viability: 0.412
[6]; first compound 8 µM
  relative viability: 0.417
[7]; first compound 0.08 µM
  relative viability: 0.588
[7]; first compound 0.8 µM
  relative viability: 0.628
[7]; first compound 2.53 µM
  relative viability: 0.624
[7]; first compound 8 µM
  relative viability: 0.629
[8]; first compound 0.08 µM
  relative viability: 0.27
[8]; first compound 0.8 µM
  relative viability: 0.318
[8]; first compound 2.53 µM
  relative viability: 0.269
[8]; first compound 8 µM
  relative viability: 0.267
[9]; first compound 0.08 µM
  relative viability: 0.191
[9]; first compound 0.8 µM
  relative viability: 0.253
[9]; first compound 2.53 µM
  relative viability: 0.233
[9]; first compound 8 µM
  relative viability: 0.19
[10]; first compound 0.08 µM
  relative viability: 0.396
[10]; first compound 0.8 µM
  relative viability: 0.452
[10]; first compound 2.53 µM
  relative viability: 0.399
[10]; first compound 8 µM
  relative viability: 0.462
[11]; first compound 0.08 µM
  relative viability: 0.213
[11]; first compound 0.8 µM
  relative viability: 0.182
[11]; first compound 2.53 µM
  relative viability: 0.277
[11]; first compound 8 µM
  relative viability: 0.22
[12]; first compound 0.08 µM
  relative viability: 0.463
[12]; first compound 0.8 µM
  relative viability: 0.448
[12]; first compound 2.53 µM
  relative viability: 0.458
[12]; first compound 8 µM
  relative viability: 0.49
[13]; first compound 0.08 µM
  relative viability: 0.549
[13]; first compound 0.8 µM
  relative viability: 0.557
[13]; first compound 2.53 µM
  relative viability: 0.508
[13]; first compound 8 µM
  relative viability: 0.501
[14]; first compound 0.08 µM
  relative viability: 0.677
[14]; first compound 0.8 µM
  relative viability: 0.657
[14]; first compound 2.53 µM
  relative viability: 0.723
[14]; first compound 8 µM
  relative viability: 0.807
[15]; first compound 0.08 µM
  relative viability: 0.608
[15]; first compound 0.8 µM
  relative viability: 0.465
[15]; first compound 2.53 µM
  relative viability: 0.575
[15]; first compound 8 µM
  relative viability: 0.612
[16]; first compound 0.08 µM
  relative viability: 0.821
[16]; first compound 0.8 µM
  relative viability: 1.06
[16]; first compound 2.53 µM
  relative viability: 0.952
[16]; first compound 8 µM
  relative viability: 0.939
[17]; first compound 0.08 µM
  relative viability: 1.03
[17]; first compound 0.8 µM
  relative viability: 1.12
[17]; first compound 2.53 µM
  relative viability: 0.814
[17]; first compound 8 µM
  relative viability: 0.836
[18]; first compound 0.08 µM
  relative viability: 0.18
[18]; first compound 0.8 µM
  relative viability: 0.25
[18]; first compound 2.53 µM
  relative viability: 0.167
[18]; first compound 8 µM
  relative viability: 0.187
[19]; first compound 0.08 µM
  relative viability: 0.161
[19]; first compound 0.8 µM
  relative viability: 0.172
[19]; first compound 2.53 µM
  relative viability: 0.147
[19]; first compound 8 µM
  relative viability: 0.177
[20]; first compound 0.08 µM
  relative viability: 0.399
[20]; first compound 0.8 µM
  relative viability: 0.44
[20]; first compound 2.53 µM
  relative viability: 0.4
[20]; first compound 8 µM
  relative viability: 0.327
[21]; first compound 0.08 µM
  relative viability: 0.428
[21]; first compound 0.8 µM
  relative viability: 0.447
[21]; first compound 2.53 µM
  relative viability: 0.419
[21]; first compound 8 µM
  relative viability: 0.424
[22]; first compound 0.08 µM
  relative viability: 0.192
[22]; first compound 0.8 µM
  relative viability: 0.187
[22]; first compound 2.53 µM
  relative viability: 0.169
[22]; first compound 8 µM
  relative viability: 0.271
[23]; first compound 0.08 µM
  relative viability: 0.229
[23]; first compound 0.8 µM
  relative viability: 0.196
[23]; first compound 2.53 µM
  relative viability: 0.188
[23]; first compound 8 µM
  relative viability: 0.243
[24]; first compound 0.08 µM
  relative viability: 0.516
[24]; first compound 0.8 µM
  relative viability: 0.493
[24]; first compound 2.53 µM
  relative viability: 0.666
[24]; first compound 8 µM
  relative viability: 0.883
[25]; first compound 0.08 µM
  relative viability: 0.438
[25]; first compound 0.8 µM
  relative viability: 0.672
[25]; first compound 2.53 µM
  relative viability: 0.511
[25]; first compound 8 µM
  relative viability: 0.718
